Results from publication PMC12567141, “Design, Synthesis and Biological Evaluation of Pyrazolopyrimidine Derivatives as Aryl Hydrocarbon Receptor Antagonists for Colorectal Cancer Immunotherapy” (Pharmaceutics, 2025).
Several values for one entry are separate records, joined by “and”; a condition that tells them apart may be missing. Equal entries are not always repeated. Where two headings read alike, the source gives them in different places.

Key:
[1] = molecular target: T1, AhR (Danio rerio, UniProt Q9YGV3); parameters: method as in PMID 34223158, PMID 10913616, PMID 31358358; conditions: reported AhR antagonists, Figure 2; cited from earlier work
[2] = system: AhR; assay: AhR antagonist screening using Tg(cyp1a:egfp) zebrafish; assay type: in vivo; parameters: key to AhR Antagonist Activity at 100 nM: - no inhibition; + weak; ++ mild; +++ moderate; ++++ high; +++++ very high; conditions: for AhR antagonistic activity in zebrafish, in words: Tg(cyp1a:egfp) zebrafish, EGFP readout; for AhR Antagonist Activity at 100 nM: extent of GFP reduction in Tg(cyp1a:egfp) zebrafish compared to the TCDD (2 nM) control, 48 h
Procedure: At 30 hpf, Tg(cyp1a:egfp) embryos were placed in a 2-mL screw-capped glass vial with five embryos per vial. Each vial contained 1 mL of E3 media (5 mM NaCl, 0.17 mM KCl, 0.33 mM CaCl2·2H2O and 0.4 mM MgCl2·6H2O, pH 7.2) and supplemented with 2 nM TCDD (1746-01-6; AccuStandard Inc., New Haven, NH, USA) dissolved in DMSO. The compounds were subsequently diluted and individually introduced into the vials, achieving a final concentration of 0.1% DMSO. The embryos were then incubated for 48 h and then embryonic EGFP expression was evaluated using a fluorescent stereomicroscope (SteREO Discovery V8; Zeiss, Oberkochen, BW, Germany). As a positive control, StemRegenin1 (72342, […] Technologies, Vancouver, BC, Canada) was employed.
To evaluate AhR antagonistic activity, we conducted an AhR antagonist assay using transgenic zebrafish. Zebrafish have garnered significant attention as model organisms for drug discovery because they share metabolic pathways with mammals. […] Therefore, we synthesized more meta substituted phenyl derivatives. […] We also synthesized heteroaromatic derivatives including pyrimidine and pyridine at 5-position; however, their activities were decreased.

[3] = molecular target: T1, AhR; assay: IC50 determination, Cyp1a dual luciferase reporter assay in transfected COS-7 cells; assay type: cell-based; conditions: AhR2/ARNT-1c/Cyp1a-luciferase, TCDD 10 nM
Procedure: All experiments were conducted as described previously unless stated otherwise. COS-7 cells were seeded onto 24-well plate until approximately 65% confluency. The cells were transfected with ARNT-1c expression plasmid (50 ng), AhR2 expression plasmid (5 ng), Cyp1a-firefly luciferase reporter plasmid (20 ng) and pRL-TK Renilla luciferase plasmid (2 ng) using Lipofectamine 3000 (Thermo Fisher Scientific) according to the manufacturer’s protocol. The pEGFP-C1 plasmid (Clontech, Tempe, AZ, USA) was used to assess the transfection efficiency. At 5 h post transfection, serially diluted test compounds at indicated concentration were added to the cells. Simultaneously, TCDD (10 nM) or indicated compounds with the highest concentration were added in the control wells. At 1 h post compound treatment, TCDD (10 nM) was added to all wells except the control wells. At 18 h post TCDD treatment, the medium was removed, and the cells washed with Dulbecco’s phosphate buffered saline (DPBS) and harvested using 1x Passive Lysis Buffer (Promega, Madison, WI, USA). The dual luciferase assay was carried out using a Dual-Luciferase Reporter Assay System (Promega, Madison, WI, USA) and an Orion L Microplate Luminometer (Titertek Berthold, Pforzheim, BW, Germany) as per manufacturer’s protocol. The relative light unit (RLU) values were normalized and expressed as toxic induced ratio (TIR). IC50 was determined using Prism 9.0 (GraphPad Software).

[4] = system: MC38 tumor; assay: In vivo therapy, MC38 syngeneic model; parameters: species or system mice; conditions: MC38 model, comparison of 7k and 3′,4′-dimethoxyflavone, 10 mg/kg oral once a day, 18 days
Procedure: In vivo experiments were conducted using 6-week-old male immunocompetent BALB/c and C57BL/6 with 18–20 g body weight (Orient Bio Inc., Seungnam, Republic of Korea). All animal experimental procedures were maintained and used in accordance with the Guidelines for the Care and Use of Laboratory Animals of the Institute of Laboratory Animal Center, Daegu-Gyeongbuk Medical Innovation Foundation (K-MEDI hub). The animal studies were conducted after approval by the institutional reviewer board on the Ethics of Animal Experiments of the Daegu-Gyeongbuk Medical Innovation Foundation (approval number: KMEDI-24041103-01).
Study 1: Antitumor activity of 7k alone in mice with either CT26 syngeneic model or MC38 syngeneic model. Mice were subcutaneously challenged with 5 × 10^5 either MC38 or CT26 cells. […]
The 7k was dissolved in solution including 5% DMSO, 55% DW, and 40% PEG. Tumor size was measured with a caliper at the indicated time points, and tumor volume (mm^3) was calculated using the following formula, tumor volume (mm^3) = d2 × D/2, where d and D are the shortest and longest diameters in mm, respectively.

[5] = system: colorectal cancer cells; assay: Cell viability assay (CCK-8), colorectal cancer cells; assay type: cell-based; conditions: 24 h
Procedure: (§1) Chinese hamster ovary CHO cells, mouse fibroblast L929 cells, normal colon CCD18-Co cells, monkey kidney fibroblast COS-7 cells, colorectal cancer cells including HCT-116, RKO, SW480, SW620, CT26, and MC38 cells were purchased from ATCC (American Type Culture Collection). CHO, L929, Cos-7, and all cancer cells were maintained in RPMI 1640 or DMEM supplemented with 10% FBS (Gibco FBS; Thermo Fisher Scientific, Hanover Park, IL, USA) and 1% streptomycin/penicillin. CCD18-Co cells were cultured in high-glucose Dulbecco modified Eagle medium containing 10% FBS and 1% streptomycin/penicillin. All cells were grown in 5% CO2 at 37 °C. Mycoplasma testing was regularly performed every month using the BioMycoX Mycoplasma PCR Detection Kit (CellSafe, Yongin, Republic of Korea).
(§2) Cell viability was analyzed using a Cell Counting Kit-8 (Dojindo molecular technologies, Rockville, MD, USA). Cells were seeded in 96-well plates and treated with different concentrations of 7k. At the indicated time points, CCK-8 (10 μL/well) reagents were added to the cells, followed by further incubation at 37 °C for 90 min. The absorbance at 450 nm was measured using a plate reader (BioTek instruments, Winooski, VT, USA).

[6] = system: normal cells (CHO, L929, CCD-18Co); assay: Cell viability assay (CCK-8), normal cells; assay type: cell-based; conditions: 24 h, 7k: CHO, SR-1: CCD-18Co
Procedure: as §1, §2

T1 sequence (Q9YGV3 1-1027): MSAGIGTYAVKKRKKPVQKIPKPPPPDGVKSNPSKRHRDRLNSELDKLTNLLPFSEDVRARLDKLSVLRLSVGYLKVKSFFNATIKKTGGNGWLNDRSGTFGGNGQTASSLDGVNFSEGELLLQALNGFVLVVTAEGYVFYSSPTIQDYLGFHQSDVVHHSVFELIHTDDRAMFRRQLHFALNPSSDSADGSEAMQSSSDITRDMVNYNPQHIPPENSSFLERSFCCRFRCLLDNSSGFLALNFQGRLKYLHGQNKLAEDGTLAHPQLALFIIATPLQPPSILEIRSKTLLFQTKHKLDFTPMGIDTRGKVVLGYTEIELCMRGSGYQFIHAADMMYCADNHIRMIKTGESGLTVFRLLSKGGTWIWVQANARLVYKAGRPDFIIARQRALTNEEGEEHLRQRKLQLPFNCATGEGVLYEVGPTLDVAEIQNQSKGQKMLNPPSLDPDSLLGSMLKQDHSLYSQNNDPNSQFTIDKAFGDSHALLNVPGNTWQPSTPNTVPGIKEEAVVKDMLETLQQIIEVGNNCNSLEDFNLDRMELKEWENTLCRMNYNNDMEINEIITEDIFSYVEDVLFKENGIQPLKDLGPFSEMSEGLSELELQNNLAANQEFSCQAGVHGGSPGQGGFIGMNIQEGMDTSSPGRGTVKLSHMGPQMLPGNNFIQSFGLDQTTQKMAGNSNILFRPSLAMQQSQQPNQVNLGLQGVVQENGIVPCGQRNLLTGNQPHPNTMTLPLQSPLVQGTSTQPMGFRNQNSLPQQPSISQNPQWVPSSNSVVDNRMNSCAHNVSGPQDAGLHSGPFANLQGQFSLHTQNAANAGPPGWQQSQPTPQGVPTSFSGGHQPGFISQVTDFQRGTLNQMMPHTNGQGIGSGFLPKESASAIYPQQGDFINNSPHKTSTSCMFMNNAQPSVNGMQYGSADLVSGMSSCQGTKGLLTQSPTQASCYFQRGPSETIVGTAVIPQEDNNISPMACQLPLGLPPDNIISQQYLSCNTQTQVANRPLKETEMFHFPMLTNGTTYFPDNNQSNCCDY
T1 sequence (Q64FF9 1-503 partner): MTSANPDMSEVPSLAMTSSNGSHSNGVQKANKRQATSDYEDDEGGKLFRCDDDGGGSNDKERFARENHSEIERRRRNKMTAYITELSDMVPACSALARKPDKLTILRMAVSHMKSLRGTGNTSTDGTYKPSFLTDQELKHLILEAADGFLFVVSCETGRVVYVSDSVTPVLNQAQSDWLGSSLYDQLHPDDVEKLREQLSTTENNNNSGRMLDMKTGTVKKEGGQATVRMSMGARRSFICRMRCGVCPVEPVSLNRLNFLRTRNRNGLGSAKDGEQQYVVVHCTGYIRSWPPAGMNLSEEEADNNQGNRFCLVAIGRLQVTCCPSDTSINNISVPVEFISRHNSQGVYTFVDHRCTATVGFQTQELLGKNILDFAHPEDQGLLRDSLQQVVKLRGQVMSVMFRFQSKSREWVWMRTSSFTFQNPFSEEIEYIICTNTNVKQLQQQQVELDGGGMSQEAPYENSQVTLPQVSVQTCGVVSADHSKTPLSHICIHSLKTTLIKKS

| Compound | AhR antagonistic activity in zebrafish, in words [2] | AhR Antagonist Activity at 100 nM [2] | further results |
| --- | --- | --- | --- |
| Cc1ccccc1-c1cc2cc(NC(=O)c3ccnn3C)ccc2[nH]1 [PX-A24590] |  |  | IC50 [1]: 60 nM |
| CCn1cc2nc(-c3cccc(C#N)c3)nc(NCCc3c[nH]c4ccccc34)c2n1 [Compound 7g] | lower activity than that of the isopropyl compound | +++ |  |
| CC(C)n1cc2nc(-c3cccc(C(=O)OC(C)(C)C)c3)nc(NCCc3c[nH]c4ccccc34)c2n1 [Compound 7m] | decreased activities | - |  |
| CC(C)n1cc2nc(-c3cccc(N)c3)nc(NCCc3c[nH]c4ccccc34)c2n1 [Compound 7f] | didn’t show AhR inhibition | - |  |
| CC(C)n1cc2nc(-c3cccc(C#N)c3)nc(NCCc3c[nH]c4ccccc34)c2n1 [Compound 7c] |  | ++++ | IC50 [3]: 171 nM |
| C[C@@H](CO)NC(=O)c1cc(-c2ccc(Cl)cc2)nn(-c2cnn(C)c2)c1=O [BAY 2416964] |  |  | IC50 [1]: 341 nM |
| COc1ccc(-c2cc(=O)c3ccccc3o2)cc1OC [3′,4′-dimethoxyflavone, reference compound] |  |  | tumor growth inhibition (TGI) [4]: 37% |
| CC(C)n1cc2nc(-c3cccc(OC(F)(F)F)c3)nc(NCCc3c[nH]c4ccccc34)c2n1 [Compound 7l] | decreased activities | +++ | IC50 [3]: 301 nM |
| CC(C)n1cc2nc(-c3cccc(C#N)c3)nc(NCCc3c[nH]c4ccc(O)cc34)c2n1 [Compound 7i] | decreased AhR inhibition | - |  |
| CC(C)n1cc2nc(-c3ccccc3)nc(NCCc3c[nH]c4ccccc34)c2n1 [Compound 7a] |  | + |  |
| CC(C)n1cnc2c(NCCc3ccc(O)cc3)nc(-c3csc4ccccc34)nc21 [SR-1, StemRegenin 1, reference compound] |  | +++ | cell proliferation / viability of colorectal cancer cells [5]: reduced the viability of colorectal cancer cells; cell viability of normal cells [6]: little effect; IC50 [3]: 198 nM; IC50 [1]: 127 nM |
| CC(C)n1cc2nc(-c3cccc(C(F)(F)F)c3)nc(NCCc3c[nH]c4ccccc34)c2n1 [Compound 7e] | didn’t show AhR inhibition | - |  |
| CC(C)c1cnn2c(N[C@H]3CCc4[nH]c5ccccc5c4C3)nc(-c3cncc(F)c3)nc12 [IK-175] |  |  | IC50 [1]: < 500 nM |
| CC(C)n1cc2nc(-c3ccc(C#N)cc3)nc(NCCc3c[nH]c4ccccc34)c2n1 [Compound 7b] | better activity compared with those of the hit compound | ++ |  |
| CCCCn1cc2nc(-c3cccc(C#N)c3)nc(NCCc3c[nH]c4ccccc34)c2n1 [Compound 7h] | lower activity than that of the isopropyl compound | +++ |  |
| CC(C)n1cc2nc(-c3cccc(F)c3)nc(NCCc3c[nH]c4ccccc34)c2n1 [Compound 7j] |  | ++++ | IC50 [3]: 412 nM and 413 nM |
| C[C@@H](CO)NC(=O)c1cc(-c2ccc(Cl)cc2)nn(-c2cccc(F)c2)c1=O [BAY-128] |  |  | IC50 [1]: 39.9 nM |
| CC(=O)c1cccc(-c2nc(NCCc3c[nH]c4ccccc34)c3nn(C(C)C)cc3n2)c1 [Compound 7d] | didn’t show AhR inhibition | - |  |
